Measurements reported in paper PMC4964015 (Annals of Clinical Microbiology and Antimicrobials, 2016).
Peptide text beside a SMILES is read from it.

How the values were obtained:
[1] = tested on: rhizobia (Sinorhizobium meliloti); assay: Killing assay in phosphate buffer (number of living cells); format: cell-based; details: 50 µg/ml peptide in phosphate buffer for three hours
Method: (§1) In this study, we investigated how NCR247 and NCR335 affect the cell surface as well as the outer and inner membranes (OM and IM respectively) of the α-Proteobacterium S. meliloti, the natural target of the peptides. We compared the effect of these NCR peptides to that of Polymyxin B (PMB), which alters bacterial outer membrane permeability and then disrupts the cytoplasmic membrane of gram-negative bacteria. […] NCR247 and NCR335 inhibited the growth of rhizobia at 25 and 12 µg/ml (Minimal Inhibitory Concentration), respectively, in broth microdilution assays, and were able to decrease the number of living cells by two and four orders of magnitude, respectively, when they were used at 50 µg/ml concentration in phosphate buffer for three hours. In other—including clinically relevant—bacteria, the minimal bactericid concentration of the peptides varied between 20 and 125 µg/ml (Additional file 1). […] Prolonging the treatment for 3 h caused no further changes, cells treated for 1 and 3 h were alike. These observations were in line with reported surface corrugation of the E. coli cell envelope by NCR247 [18]. Similar study on the NCR335 treated S. meliloti cultures could not be performed as the bacteria lost their attachment to the poly-L-lysine coated muscovite mica surface.

S. meliloti cells [2] = assay: Atomic force microscopy of immobilized cells; format: cell-based, Sinorhizobium meliloti
Excerpt: Details of the measurements and sample preparations are described in Reference 18.
Nagy K, Mikulass KR, Vegh AG, Kereszt A, Kondorosi E, Varo G, Szegletes Z: Interaction of cysteine-rich cationic antimicrobial peptides with intact bacteria and model membranes. Gen Physiol Biophys 2015, 34(2):135-144

[3] = tested on: S. meliloti outer membrane; assay: Outer membrane permeability, NPN fluorescence; format: cell-based, Sinorhizobium meliloti; details: for outer membrane permeabilization (NPN fluorescence): peptides tested at 50, 25, 12.5 and 6.25 µg/ml, 5 mM HEPES pH 7.2, 50 µg/ml = NCR335 6.4 µM, NCR247 16.6 µM, NCR001 9.5 µM, PMB 36 µM
Method: The cells from exponentially growing cultures were collected, washed and suspended in 5 mM HEPES buffer (pH=7.2). 80 µl NPN of 25 µM concentration and 100 µl of bacterial suspension (OD600=0.1) were pipetted into the wells of a black 96-well microtiter plate and the fluorescence were measured for 3 cycles (9 seconds/cycle) in a FLUOstar OPTIMA plate-reader (BMG Labtech). After the three cycles, 20 µl of peptide was added and the fluorescence were measured for an additional 18 cycles.

S. meliloti cells [4] = assay: Membrane potential, DiOC2(3) red/green fluorescence (BacLight kit); format: cell-based, Sinorhizobium meliloti; details: BacLight Bacterial Membrane Potential Kit
Excerpt: For the measurements, the BacLight™ Bacterial Membrane Potential Kit (Thermo Fisher Scientific) was used according to the instructions of the manufacturer.

Escherichia coli cells = details: cited from earlier work
Excerpt: (§2) Extremely rich sources of AMPs are the plants where up to several hundreds of peptide-coding genes can be expressed in specific organs constitutively or induced locally or systematically by the attack of pathogenic microbes. […] In Medicago truncatula nodule cells infected with Sinorhizobium meliloti, hundreds ...

fungi = details: cited from earlier work
Excerpt: as §2

[5] = tested on: gram-negative and gram-positive bacteria; details: cited from earlier work
Excerpt: as §2

Lactobacillus plantarum = assay: Minimal bactericid concentration (MBC); format: cell-based
Listeria monocytogenes = assay: Minimal bactericid concentration (MBC); format: cell-based
Pseudomonas aeruginosa = assay: Minimal bactericid concentration (MBC); format: cell-based
Salmonella typhimurium = assay: Minimal bactericid concentration (MBC); format: cell-based
Escherichia coli K12 = assay: Minimal bactericid concentration (MBC); format: cell-based
[6] = tested on: rhizobia (Sinorhizobium meliloti); assay: Broth microdilution assay (Minimal Inhibitory Concentration); format: cell-based; details: growth inhibition of rhizobia
Method: as §1

Staphylococcus aureus = assay: Minimal bactericid concentration (MBC); format: cell-based
[7] = tested on: Sinorhizobium meliloti AK631; assay: Minimal bactericid concentration (MBC); format: cell-based

| Compound | decrease of the number of living cells [1] | average height of bacteria (AFM) (S. meliloti cells [2]; 25 µg/ml, average height ~600 nm) | cell surface roughness / surface alterations (AFM) (S. meliloti cells [2]; treatment for 1 h, 3 h caused no further changes) | outer membrane damage (NPN fluorescence) ([3]; 25 µg/ml, compared with 50 µg/ml) | outer membrane damage (NPN fluorescence) ([3]; 50 µg/ml) | outer membrane damage (NPN fluorescence) ([3]; concentrations lower than 25 µg/ml) | effect on membrane potential (DiOC2(3) red/green fluorescence ratio) (S. meliloti cells [4]) | surface roughness of treated Escherichia coli cells (AFM) (Escherichia coli cells) | antimicrobial activity against fungi (fungi) | antimicrobial activity against gram-negative and gram-positive bacteria [5] | MBC (Lactobacillus plantarum) [µg/mL] | MBC (Listeria monocytogenes) [µg/mL] | MBC (Pseudomonas aeruginosa) [µg/mL] | outer membrane permeabilization (NPN fluorescence) [3] | MBC (Salmonella typhimurium) [µg/mL] | MBC (Escherichia coli K12) [µg/mL] | Minimal Inhibitory Concentration [6] [µg/mL] | MBC (Staphylococcus aureus) [µg/mL] | MBC [7] [µg/mL] |
| --- | --- | --- | --- | --- | --- | --- | --- | --- | --- | --- | --- | --- | --- | --- | --- | --- | --- | --- | --- |
| CC[C@H](C)[C@H](NC(=O)[C@H](CS)NC(=O)CNC(=O)[C@H](CC(N)=O)NC(=O)[C@@H](N)CCCNC(=N)N)C(=O)N[C@H](C(=O)N[C@@H](CC(=O)O)C(=O)N1CCC[C@H]1C(=O)N[C@@H](CCCNC(=N)N)C(=O)N[C@@H](CS)C(=O)N1CCC[C@H]1C(=O)N[C@@H](Cc1ccc(O)cc1)C(=O)N[C@@H](CCC(N)=O)C(=O)N[C@@H](CCC(N)=O)C(=O)N[C@@H](CS)C(=O)N[C@@H](CCCNC(=N)N)C(=O)N[C@@H](CCCNC(=N)N)C(=O)N1CCC[C@H]1C(=O)N[C@@H](CC(C)C)C(=O)N[C@@H](Cc1ccc(O)cc1)C(=O)N[C@@H](CS)C(=O)N[C@@H](CCCNC(=N)N)C(=O)N[C@@H](CCCNC(=N)N)C(=O)N[C@@H](CCCNC(=N)N)C(=O)O)C(C)C [NCR247] (H-RNGCIVDPRCPYQQCRRPLYCRRR-OH; C-terminus assumed) | two | no change in the average height | increased the surface roughness | even weaker | only a mild damage | no effect | loss of membrane potential | increased surface roughness | effective | effective |  |  |  |  |  |  |  |  |  |
| H-RLNTTFRPLNFKMLRFWGQNRNIMKHRGQKVHFSLILSDCKTNKDCPKLRRANVRCRKSYCVPI [NCR335, cationic nodule-specific cysteine-rich peptide of Medicago truncatula, chemically synthetized, pI 11.22] | four |  |  |  |  |  | loss of membrane potential | increased surface roughness | effective | effective | 30 | 20 | 70 | equally efficient at 50, 25 and 12.5 µg/ml but provoked a weaker OM permeabilization than PMB | 50 | 50 | 12 | 30 | 50 |
| N#CC(C#N)=NNc1cccc(Cl)c1 [CCCP, carbonyl cyanide m-chlorophenyl hydrazone, reference compound] |  |  |  |  |  |  | loss of membrane potential |  |  |  |  |  |  |  |  |  |  |  |  |
| Polymyxin B [PMB, reference compound] |  |  |  |  |  |  | loss of membrane potential |  |  |  |  |  |  | most pronounced effect |  |  |  |  |  |
